Values after ≈ are worked out from the molar mass of the structure shown. Read-outs that look alike come from different tables or passages of the source.
Key:
S. flexneri 5a M90T = assay: MIC in tryptic soy broth, S. flexneri; format: cell-based, Shigella flexneri; details: for MIC: Shigella flexneri, 5AM90T, read-out: MIC (μM) TSB
Outline: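 Standard microdilution protocol, triplicate wells. For S. flexneri the growth medium is TSB. The other three strains are grown in HEPES-buffered (40 mM, pH 7.4) CA-MHB, and UPEC is also run at pH 5.5 in LPM containing 30 mM MES.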

non-growing UPEC CFT073 = assay: Dilution-regrowth assay (screen, hit validation, dose-response) on stationary-phase UPEC; format: cell-based, Escherichia coli; details: for EC50: E. coli, regrowth delay of non-growing bacteria, 24 h treatment, OD600 6 h after 2500-fold dilution, read-out: EC50; for OD600 at 6hr, Mean: after dilution into drug-free medium
Outline: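 Regrowth (OD600 after 6 h, 37 °C) of diluted non-growing CFT073, following 24 h compound treatment of 24 h stationary cultures, defines activity relative to untreated control. Screen at 20 µM, validation at 20, 10, 5 µM (duplicates), dose–response in three biological replicates fitted by five-parameter logistic.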

[1] = test system: intracellular S. flexneri 5a M90T in TC7 cells; assay: microbe, parasite or virus in culture; format: cell-based, Shigella flexneri; details: for IC50: Shigella flexneri, TC7, 14 h; for Fluorescence intensity (RFU), Mean, 0.125 x MIC / Fluorescence intensity (RFU), Mean, 0.25 x MIC / Fluorescence intensity (RFU), Mean, 0.5 x MIC / Fluorescence intensity (RFU), Mean, 2 x MIC / Fluorescence intensity (RFU), Mean, 4 x MIC / Fluorescence intensity (RFU), Mean, 8 x MIC / Fluorescence intensity (RFU), Mean, 16 x MIC / Fluorescence intensity (RFU), Mean, 32 x MIC / Fluorescence intensity (RFU), Mean, MIC: TC7 cells infected with GFP-expressing S. flexneri, 14 h treatment
Description: Nonproliferating bacterial pathogens frequently inhabit intracellular environments, but establishing relevant infection models for high-throughput testing is challenging. Therefore, we firstly tested ability of the hit compounds to cross the eukaryotic cytoplasmic membrane barrier and inhibit growth of S. flexneri within the cytoplasm of the TC7 human colon adenocarcinoma cell line[59]. To this end, we developed a new, fluorescence-based method that enables real-time monitoring of growth of intracellular Shigella. We used S. flexneri 5a M90T strain producing the AfaE adhesin that enhances bacterial adhesion to epithelial cells and allows synchronization of invasion. The strain was further modified to constitutively express super-folder GFP (sfGFP), which enables monitoring bacterial growth by fluorescence measurement. The epithelial cells were grown to confluence and infected with bacteria at an MOI (multiplicity of infection) of 50. […] Following bacterial adhesion and invasion, the cells were incubated with varying concentrations of the hit compounds and intracellular bacterial growth was tracked by measuring green fluorescence.
The cells were split using trypsin, seeded in 96-well plates for infection, and grown to confluence, corresponding to approximately 40,000 cells per well.
A single colony of S. flexneri was inoculated into TSB supplemented with 50 μg/ml spectinomycin and incubated overnight at 37°C with agitation. The overnight culture was diluted 1:200 in fresh TSB, and the bacteria were grown at 37 °C until the OD600 reached 0.3–0.4, corresponding to approximately 2 × 10^7 CFU/ml. Bacteria were pelleted by centrifugation, washed twice with sterile PBS, and resuspended in infection solution (serum-free DMEM supplemented with 20 mM HEPES, pH 7.4). Just prior to infection, the medium was withdrawn, and the cells were washed twice with sterile PBS. The bacterial inoculum (MOI 50, 2 × 10^7 CFU/ml) was added to all wells except the no-infection control. The plates were incubated at room temperature for 15 min to allow bacterial adhesion, followed by a 1 h incubation at 37 °C with 5% CO2 to facilitate bacterial invasion.
Twofold serial dilutions of the drugs were prepared in infection solution containing 50 μg/ml gentamicin in a 96-well plate. After the invasion period, the bacterial inoculum was removed, and the serial dilutions of the drugs were added to the wells, except for the no-drug control. […] […] The experiments were performed in triplicates on separate days.
Statistical significance of the drug effects was assessed using a one-way ANOVA followed by Dunnett’s test, comparing each treatment to the drug-free control. Statistical significance of the differences in chemical characteristics between the hit compounds and the Prestwick library was assessed using a Mann–Whitney test. Statistical significance was set at P ≤ 0.05. A five-parameter logistic equation was used for asymmetric sigmoidal curve fitting and for EC50 and IC50 determination. The Venn diagram in Fig. 1F was prepared using BioVenn web application. Characteristics of the chemical and physical properties of Prestwick library compounds were obtained from Supplementary Table S1 from reference. Characteristics of the hit compounds not included in the Prestwick library were retrieved from the PubChem database.

[2] = Escherichia coli, pH 7.4, 1:4 CA-MHB

Row | Molecule | MIC (S. flexneri 5a M90T) [µM] | EC50 (non-growing UPEC CFT073; Escherichia coli, LPM pH 5.5) [nM] | EC50 (non-growing UPEC CFT073; [2]) [nM] | IC50 [1] [nM] | Fluorescence intensity (RFU), Mean, 0.25 x MIC [1] [RFU] | Fluorescence intensity (RFU), Mean, 0.5 x MIC [1] [RFU] | Fluorescence intensity (RFU), Mean, 2 x MIC [1] [RFU] | Fluorescence intensity (RFU), Mean, 4 x MIC [1] [RFU] | Fluorescence intensity (RFU), Mean, 8 x MIC [1] [RFU] | Fluorescence intensity (RFU), Mean, 16 x MIC [1] [RFU] | Fluorescence intensity (RFU), Mean, 32 x MIC [1] [RFU] | Fluorescence intensity (RFU), Mean, MIC [1] [RFU] | other results
1 | N[C@@H]1[C@H]2CN(c3nc4c(cc3F)c(=O)c(C(=O)O)cn4-c3ccc(F)cc3F)C[C@@H]12 [Trovafloxacin] | 0.0625 (≈ 0.026 µg/mL) | 5180 | 1250 | 37 | 8024.79 | 6129.12 | 2933.5 | 2559.17 | 2016.56 | 1696.44 | 1579.94 | 3277.92 | Fluorescence intensity (RFU), Mean, 0.125 x MIC [1]: 8837.54 RFU
2 | CCN1CCN(c2cc3c(cc2F)c(=O)c(C(=O)O)cn3C2CC2)CC1 [Enrofloxacin] | 0.0625 (≈ 0.0225 µg/mL) | 21500 | 5170 | 36 | 7346.62 | 6043.88 | 2710.72 | 1953.94 | 1617.72 | 1488.39 | 1501.89 | 3054.19 | Fluorescence intensity (RFU), Mean, 0.125 x MIC [1]: 8510.46 RFU
3 | CC[C@H]1OC(=O)C[C@@H](O)[C@H](C)[C@@H](O[C@@H]2O[C@H](C)C[C@H](N(C)C)[C@H]2O)[C@@H](CC=O)C[C@@H](C)C(=O)/C=C/[C@]2(C)O[C@H]2[C@@H]1C [Rosamicin] | 16 (≈ 9.31 µg/mL) | – | 858 | 23600 | 9383.2 | 8207.86 | 3601.92 | 1830.75 | – | – | – | 6316.33 | –
4 | C[C@@H]1CN(c2c(F)c(N)c3c(=O)c(C(=O)O)cn(C4CC4)c3c2F)C[C@H](C)N1 [Sparfloxacin] | 0.0312 (≈ 0.0123 µg/mL) | – | 6330 | 12 | 5576.79 | 4270.29 | 2726.47 | 2375.69 | 1916.33 | 1615.39 | 1554.53 | 2934.67 | MIC:IC50 ratio ([1]; S. flexneri MIC in TSB versus intracellular IC50): > 2
5 | O=C(O)c1cn(C2CC2)c2cc(N3CCNCC3)c(F)cc2c1=O [Ciprofloxacin] | 0.0625 (≈ 0.0207 µg/mL) | – | 1380 | 54 | – | 6160.67 | 3512.33 | 3078.86 | 2399.75 | 1781.06 | 1734.42 | 4637.36 | –
6 | Bleomycin | – | – | – | – | – | – | – | – | – | – | – | – | MIC (μM) TSB (S. flexneri 5a M90T; S. flexneri, extracellular bacteria in TSB): 0.25 µM; OD600 at 6hr, Mean (non-growing UPEC CFT073; E. coli in 1:4 CA-MHB (pH 7.4), 0.25 μM): 0.585; OD600 at 6hr, Mean (non-growing UPEC CFT073; E. coli in 1:4 CA-MHB (pH 7.4), 0.5 μM): 0.575; OD600 at 6hr, Mean (non-growing UPEC CFT073; E. coli in 1:4 CA-MHB (pH 7.4), 1 μM): 0.327; OD600 at 6hr, Mean (non-growing UPEC CFT073; E. coli in 1:4 CA-MHB (pH 7.4), 2.5 μM): 0.130; OD600 at 6hr, Mean (non-growing UPEC CFT073; E. coli in 1:4 CA-MHB (pH 7.4), 5 μM): 0.073; OD600 at 6hr, Mean (non-growing UPEC CFT073; E. coli in 1:4 CA-MHB (pH 7.4), 10 μM): 0.067; OD600 at 6hr, Mean (non-growing UPEC CFT073; E. coli in 1:4 CA-MHB (pH 7.4), 30 μM): 0.076; OD600 at 6hr, Mean (non-growing UPEC CFT073; E. coli in LPM (pH 5.5), 0.25 μM): 0.600; OD600 at 6hr, Mean (non-growing UPEC CFT073; E. coli in LPM (pH 5.5), 0.5 μM): 0.583; OD600 at 6hr, Mean (non-growing UPEC CFT073; E. coli in LPM (pH 5.5), 1 μM): 0.569; OD600 at 6hr, Mean (non-growing UPEC CFT073; E. coli in LPM (pH 5.5), 2.5 μM): 0.559; OD600 at 6hr, Mean (non-growing UPEC CFT073; E. coli in LPM (pH 5.5), 5 μM): 0.513; OD600 at 6hr, Mean (non-growing UPEC CFT073; E. coli in LPM (pH 5.5), 10 μM): 0.348; OD600 at 6hr, Mean (non-growing UPEC CFT073; E. coli in LPM (pH 5.5), 30 μM): 0.169; EC50 (non-growing UPEC CFT073; LPM pH 5.5): 9490 nM; EC50 (non-growing UPEC CFT073; pH 7.4, 1:4 CA-MHB): 987 nM; inhibition of intracellular Shigella ([1]; TC7 cells): inactive
7 | CC1Sc2c(C(=O)O)c(=O)c3cc(F)c(N4CCNCC4)cc3n21 (stereo not drawn) [Ulifloxacin] | 0.0312 (≈ 0.0109 µg/mL) | 8780 | 460 | 101 | – | – | 6924.86 | 4362.58 | 3208.03 | 2720.44 | 2065.19 | 8271.31 | –

— publication PMC11992225, “Antibacterial compounds against non-growing and intracellular bacteria” (npj Antimicrobials and Resistance, 2025)
